Measurements taken from BindingDB's records for doi:10.1016/s0960-894x(99)00462-x (Abbott Laboratories, 1999).
pKi: −log10 of the molar value.

Experiment: Nicotinic acetylcholine receptor binding activity was determined by ability to displace [125I]alpha-BgT binding to rat brain membrane

Compound	pKi
CN1CC[C@@H](Oc2cccnc2)C1 [3-((R)-1-Methyl-pyrrolidin-3-yloxy)-pyridine]	< 5.00
c1ncc(OC[C@@H]2CCN2)cn1 [5-((S)-1-Azetidin-2-ylmethoxy)-pyrimidine]	< 5.00
CN1CC[C@H](Oc2cccnc2)C1 [3-((S)-1-Methyl-pyrrolidin-3-yloxy)-pyridine]	< 5.00
CN1CC[C@H]1COc1cncnc1 [5-((S)-1-Methyl-azetidin-2-ylmethoxy)-pyrimidine]	< 5.00
